# From patent publication US20170066759A1, “AROMATIC 5-MEMBERED HETEROCYCLIC DERIVATIVE HAVING TRPV4-INHIBITING ACTIVITY” (Shionogi & Co., Ltd., priority 2012, published 2017)
# pIC50, pKi: −log10 of the molar value.
# How the values were obtained:
# [1] = molecular target: T1, CYP2C19 (Homo sapiens, UniProt P33261); experiment: Test Example 6: CYP inhibition test, mephenytoin 4′-hydroxylation (CYP2C19); format: in vitro ADME; details: pooled human hepatic microsome, 50 μmol/L S-mephenytoin
# T1 construct: enzyme, pooled human hepatic microsome 0.2 mg protein/mL; from tissue; host or cells: pooled human liver microsomes
# Method: (§1) Test Example 6 CYP Inhibition Test […] The reaction conditions were as follows: substrate, 0.5 μmol/L ethoxyresorufin (CYP1A2), 100 μmol/L tolbutamide (CYP2C9), 50 μmol/L S-mephenytoin (CYP2C19), 5 μmol/L dextromethorphan (CYP2D6), 1 μmol/L terfenedine (CYP3A4); reaction time, 15 minutes; reaction temperature, 37° C.; enzyme, pooled human hepatic microsome 0.2 mg protein/mL; concentration of the compound of the present invention, 1, 5, 10, 20 μmol/L (four points). Each five kinds of substrates, human hepatic microsome, and the compound of the present invention in 50 mmol/L Hepes buffer as a reaction solution were added to a 96-well plate at the composition as described above. NADPH, as a cofactor was added to initiate metabolism reactions as markers and, after the incubation at 37° C. for 15 minutes, a methanol/acetonitrile=1/1 (v/v) solution was added to stop the reaction. After the centrifugation at 3000 rpm for 15 minutes, resorufin (CYP1A2 metabolite) in the supernatant was quantified by a fluorescent multilabel counter and toltributamide hydroxide (CYP2[…] metabolite), mephenytoin 4' hydroxide (CYP2C19 metabolite), […], and terfenadine alcohol (CYP3A4 metabolite) were quantified by LC/MS/MS. Addition of only DMSO being a solvent dissolving the compound of the present invention to a reaction system was adopted as a control (100%). Remaining activity (%) was calculated at each concentration of the compound of the present invention added as the solution and IC50 was calculated by reverse presumption by a logistic model using a concentration and an inhibition rate.
# [2] = molecular target: T2, human TRPV4 (hTRPV4/CHO cells) (Homo sapiens, UniProt Q9HBA0); experiment: Test Example 4: TRPV4 inhibitory activity (Ki value), 4α-PDD stimulation, Fluo-3 calcium fluorescence (FDSS 3000); format: cell-based; details: Test Example 4, 4α-PDD stimulation, read-out: Test 4 Ki
# T2 construct: expressed in transfected cells; host or cells: CHO-K1
# Method in brief: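 hTRPV4/CHO-K1 cells loaded with 5 μmol/L Fluo-3 in HBSS/HEPES pH 7.5 with probenecid; compound (10 μmol/L to 0.5 nmol/L final, 10 points) added before 4α-PDD, fluorescence read 8 min at Ex 480/Em 540 nm. Max−Min signal normalised to 10 μM Ruthenium Red (100%) and no compound (0%); IC50 converted to Ki using 4α-PDD EC50.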
# [3] = molecular target: T3, CYP1A2 (Homo sapiens, UniProt P05177); experiment: Test Example 6: CYP inhibition test, 7-ethoxyresorufin O-deethylation (CYP1A2); format: in vitro ADME; details: pooled human hepatic microsome, 0.5 μmol/L ethoxyresorufin
# T3 construct: enzyme, pooled human hepatic microsome 0.2 mg protein/mL; from tissue; host or cells: pooled human liver microsomes
# T3 sequence (P05177 1-516): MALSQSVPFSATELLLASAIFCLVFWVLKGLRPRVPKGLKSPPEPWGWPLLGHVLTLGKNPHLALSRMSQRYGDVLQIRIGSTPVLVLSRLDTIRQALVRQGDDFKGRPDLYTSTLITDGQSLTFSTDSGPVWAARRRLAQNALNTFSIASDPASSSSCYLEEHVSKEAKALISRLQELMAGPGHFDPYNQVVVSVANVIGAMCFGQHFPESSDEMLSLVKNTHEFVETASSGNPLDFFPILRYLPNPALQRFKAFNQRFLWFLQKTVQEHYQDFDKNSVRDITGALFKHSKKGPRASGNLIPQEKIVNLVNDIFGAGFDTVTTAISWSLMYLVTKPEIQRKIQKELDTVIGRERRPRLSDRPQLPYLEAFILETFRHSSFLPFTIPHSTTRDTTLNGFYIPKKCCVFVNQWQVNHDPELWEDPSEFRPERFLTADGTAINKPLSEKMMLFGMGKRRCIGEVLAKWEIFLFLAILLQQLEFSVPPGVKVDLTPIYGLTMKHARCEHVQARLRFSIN
# Method: as §1
# [4] = molecular target: T4, CYP2C9 (Homo sapiens, UniProt P11712); experiment: Test Example 6: CYP inhibition test, tolbutamide methyl-hydroxylation (CYP2C9); format: in vitro ADME; details: pooled human hepatic microsome, 100 μmol/L tolbutamide
# T4 construct: enzyme, pooled human hepatic microsome 0.2 mg protein/mL; from tissue; host or cells: pooled human liver microsomes
# Method: as §1
# [5] = molecular target: T5, CYP2D6 (Homo sapiens, UniProt P10635); experiment: Test Example 6: CYP inhibition test, dextromethorphan O-demethylation (CYP2D6); format: in vitro ADME; details: pooled human hepatic microsome, 5 μmol/L dextromethorphan
# T5 construct: enzyme, pooled human hepatic microsome 0.2 mg protein/mL; from tissue; host or cells: pooled human liver microsomes
# Method: as §1
# [6] = molecular target: T6, CYP3A4 (Homo sapiens, UniProt P08684); experiment: Test Example 6: CYP inhibition test, terfenedine hydroxylation (CYP3A4); format: in vitro ADME; details: pooled human hepatic microsome, 1 μmol/L terfenedine
# T6 construct: enzyme, pooled human hepatic microsome 0.2 mg protein/mL; from tissue; host or cells: pooled human liver microsomes
# Method: as §1
# [7] = molecular target: T2, human TRPV4 (hTRPV4/CHO cells); experiment: Test Example 1: TRPV4 inhibitory activity (IC50 value), 4α-PDD stimulation, Fluo4 calcium fluorescence (FLIPR TETRA); format: cell-based; details: Test Example 1, 4α-PDD stimulation, read-out: Test 1 IC50
# [8] = Test Example 8: Solubility test; format: physicochemical; details: fassgf or other biorelevant, kinetic from dmso stock; 1% DMSO addition, artificial intestinal juice pH 6.8, 16 hours at 25° C.
# Method: The solubility of a compound of the present invention was determined under 1% DMSO addition conditions. A 10 mmol/L solution of the compound was prepared with DMSO, and 6 μL of the solution of the compound of the present invention was added to 594 μL of an artificial intestinal juice (water and 118 mL of 0.2 mol/L NaOH reagent were added to 250 mL of 0.2 mol/L potassium dihydrogen phosphate reagent to reach 1000 mL) with a pH of 6.8. The mixture was left standing for 16 hours at 25° C., and the mixture was vacuum-filtered. The filtrate was two-fold diluted with methanol/water=1/1 (V/V), and the compound concentration in the filtrate was measured with HPLC or LC/MS/MS by the absolute calibration method.
# [9] = Test Example 9: Metabolism stability test; format: in vitro ADME; details: human liver microsomes 0.5 mg protein/mL, 30 minutes at 37° C., NADPH, compound concentration 0.5 μmol/L
# Method: Metabolism Stability Test
# Using a commercially available pooled human hepatic microsomes, a compound of the present invention was reacted for a constant time, a remaining rate was calculated by comparing a reacted sample and an unreacted sample, thereby, a degree of metabolism in liver was assessed.
# A reaction was performed (oxidative reaction) at 37° C. for 0 minute or 30 minutes in the presence of 1 mmol/L NADPH in 0.2 mL of a buffer (50 mmol/L Tris-HCl pH 7.4, 150 mmol/L potassium chloride, 10 mmol/L magnesium chloride) containing 0.5 mg protein/mL of human liver microsomes. After the reaction, 50 μL of the reaction mixture was added to 100 μL of a methanol/acetonitrile=1/1 (v/v), mixed and centrifuged at 3000 rpm for 15 minutes. The compound of the present invention in the supernatant was quantified by LC/MS/MS, and a remaining amount of the compound of the present invention after the reaction was calculated, letting a compound amount at 0 minute reaction time to be 100%. Hydrolysis reaction was performed in the absence of NADPH and glucuronidation reaction was in the presence of 5 mmol/L UDP-glucuronic acid in place of NADPH, followed by similar operations.
# (Results) Compound concentration: 0.5 μmol/L
# [10] = molecular target: T7, CYP3A4 enzyme expressed in Escherichia coli (Homo sapiens, UniProt P08684); experiment: Test Example 5: CYP3A4 fluorescent MBI test; format: in vitro ADME; details: substrate 7-BFC, pre-reaction 30 minutes, compound 0.625-20 μmol/L
# T7 construct: host or cells: Escherichia coli
# Method: CYP3A4 Fluorescent MBI Test
# The CYP3A4 fluorescent MBI test is a test of investigating enhancement of CYP3A4 inhibition of a compound of the present invention by a metabolism reaction, and the test was performed using, as CYP3A4 enzyme expressed in Esherichia coli and employing, as an index, a reaction in which 7-benzyloxytrifluoromethylchmarin (7-BFC) is debenzylated by the CYP3A4 enzyme to produce a metabolite, 7-hydroxytrifluoromethylchmarin (HFC) emitting fluorescent light.
# The reaction conditions were as follows: substrate, 5.6 μmol/L 7-BFC; pre-reaction time, […] or 30 minutes; reaction time, 15 minutes; reaction temperature, 25° C. […]
# An enzyme in a K-Pi buffer (pH 7.4) and a solution of the compound of the present invention as a pre-reaction solution were added to a 96-well plate at the above composition of the pre-reaction. […] For the plate on which each index reaction had been performed, a fluorescent value of 7-HFC which is a metabolite was measured with a fluorescent plate reader. […]
# Addition of only DMSO which is a solvent dissolving the compound of the present invention to a reaction system was adopted as a control (100%). Remaining activity (%) was calculated at each concentration of the compound of the present invention added as the solution, and IC50 was calculated by reverse-presumption by a logistic model using a concentration and an inhibition rate. […]
# T1 sequence (P33261 whole entry): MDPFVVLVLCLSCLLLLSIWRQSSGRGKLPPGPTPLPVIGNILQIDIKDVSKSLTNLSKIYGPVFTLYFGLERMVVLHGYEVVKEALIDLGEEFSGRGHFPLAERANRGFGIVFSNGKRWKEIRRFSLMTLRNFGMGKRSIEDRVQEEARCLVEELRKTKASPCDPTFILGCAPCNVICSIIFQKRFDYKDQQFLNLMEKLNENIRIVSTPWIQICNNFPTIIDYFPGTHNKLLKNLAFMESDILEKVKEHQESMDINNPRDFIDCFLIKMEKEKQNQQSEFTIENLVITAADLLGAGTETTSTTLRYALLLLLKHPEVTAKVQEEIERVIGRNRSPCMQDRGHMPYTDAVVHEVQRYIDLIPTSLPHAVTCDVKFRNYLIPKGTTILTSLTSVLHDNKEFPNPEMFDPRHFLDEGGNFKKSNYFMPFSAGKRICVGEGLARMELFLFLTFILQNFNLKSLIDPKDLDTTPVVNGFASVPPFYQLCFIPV
# T5 sequence (P10635 whole entry): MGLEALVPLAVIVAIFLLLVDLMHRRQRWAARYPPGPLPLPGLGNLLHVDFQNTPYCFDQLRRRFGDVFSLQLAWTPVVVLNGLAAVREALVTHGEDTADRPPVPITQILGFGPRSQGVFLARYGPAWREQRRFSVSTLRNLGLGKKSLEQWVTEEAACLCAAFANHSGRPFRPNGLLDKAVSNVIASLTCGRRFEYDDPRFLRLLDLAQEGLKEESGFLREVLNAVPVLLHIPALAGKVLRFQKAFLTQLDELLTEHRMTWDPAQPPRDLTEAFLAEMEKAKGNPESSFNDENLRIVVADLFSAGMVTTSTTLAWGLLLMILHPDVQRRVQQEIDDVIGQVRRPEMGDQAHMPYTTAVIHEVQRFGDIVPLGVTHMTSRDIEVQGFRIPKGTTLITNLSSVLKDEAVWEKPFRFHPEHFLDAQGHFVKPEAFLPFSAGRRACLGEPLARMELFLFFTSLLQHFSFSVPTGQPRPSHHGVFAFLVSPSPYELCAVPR
# T2 sequence (Q9HBA0 whole entry): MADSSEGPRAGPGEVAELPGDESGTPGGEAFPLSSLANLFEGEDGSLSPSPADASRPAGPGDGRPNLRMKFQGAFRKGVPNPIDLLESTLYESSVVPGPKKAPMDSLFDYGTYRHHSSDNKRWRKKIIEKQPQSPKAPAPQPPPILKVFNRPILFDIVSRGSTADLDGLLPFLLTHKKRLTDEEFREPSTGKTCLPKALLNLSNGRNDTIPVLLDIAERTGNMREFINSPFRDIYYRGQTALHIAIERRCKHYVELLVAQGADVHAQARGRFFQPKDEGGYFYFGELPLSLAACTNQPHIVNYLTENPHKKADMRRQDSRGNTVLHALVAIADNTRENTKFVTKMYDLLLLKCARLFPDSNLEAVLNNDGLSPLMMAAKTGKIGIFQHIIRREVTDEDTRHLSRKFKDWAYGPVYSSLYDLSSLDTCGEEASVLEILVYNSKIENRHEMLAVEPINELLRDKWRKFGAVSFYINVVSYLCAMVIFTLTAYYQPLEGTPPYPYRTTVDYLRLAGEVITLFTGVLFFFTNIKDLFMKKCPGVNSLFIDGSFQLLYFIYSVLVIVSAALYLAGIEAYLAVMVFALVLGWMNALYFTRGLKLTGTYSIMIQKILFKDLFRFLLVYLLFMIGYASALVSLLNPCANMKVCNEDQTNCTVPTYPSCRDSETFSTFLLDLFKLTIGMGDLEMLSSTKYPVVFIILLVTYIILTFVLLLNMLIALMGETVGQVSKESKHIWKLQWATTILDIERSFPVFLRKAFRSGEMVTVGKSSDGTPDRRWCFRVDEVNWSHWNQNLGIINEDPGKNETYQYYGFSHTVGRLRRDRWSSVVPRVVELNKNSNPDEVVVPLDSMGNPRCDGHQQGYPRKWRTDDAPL
# T6 sequence (P08684 whole entry): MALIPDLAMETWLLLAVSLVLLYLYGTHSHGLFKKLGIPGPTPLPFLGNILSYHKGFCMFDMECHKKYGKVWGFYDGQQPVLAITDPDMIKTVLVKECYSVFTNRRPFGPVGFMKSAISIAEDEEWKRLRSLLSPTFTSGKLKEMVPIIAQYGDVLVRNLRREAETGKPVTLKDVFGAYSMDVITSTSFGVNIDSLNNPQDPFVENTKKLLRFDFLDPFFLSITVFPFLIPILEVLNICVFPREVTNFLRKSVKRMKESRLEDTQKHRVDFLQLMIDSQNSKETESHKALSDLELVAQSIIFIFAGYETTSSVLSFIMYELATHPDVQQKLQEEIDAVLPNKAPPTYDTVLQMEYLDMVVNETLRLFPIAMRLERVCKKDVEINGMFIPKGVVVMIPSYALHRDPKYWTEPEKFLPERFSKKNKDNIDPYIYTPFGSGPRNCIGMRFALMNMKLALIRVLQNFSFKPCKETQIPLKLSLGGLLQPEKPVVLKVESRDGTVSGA
# T4 sequence (P11712 whole entry): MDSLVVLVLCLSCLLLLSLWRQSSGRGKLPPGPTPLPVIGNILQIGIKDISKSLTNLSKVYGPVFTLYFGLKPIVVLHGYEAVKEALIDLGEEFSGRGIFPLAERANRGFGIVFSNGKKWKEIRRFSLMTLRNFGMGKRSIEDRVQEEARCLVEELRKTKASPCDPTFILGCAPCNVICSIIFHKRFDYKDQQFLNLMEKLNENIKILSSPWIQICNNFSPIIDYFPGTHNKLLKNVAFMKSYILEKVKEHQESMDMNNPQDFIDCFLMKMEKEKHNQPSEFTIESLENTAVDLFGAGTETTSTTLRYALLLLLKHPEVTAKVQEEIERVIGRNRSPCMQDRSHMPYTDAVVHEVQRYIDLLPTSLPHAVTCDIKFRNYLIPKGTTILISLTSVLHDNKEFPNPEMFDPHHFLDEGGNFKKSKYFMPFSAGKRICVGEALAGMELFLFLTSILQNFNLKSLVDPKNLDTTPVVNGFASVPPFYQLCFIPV
# T7 sequence (P08684 whole entry): as the sequence (P08684 whole entry) above
SMILES,pIC50 [1],pKi [2],pIC50 [3],pIC50 [4],pIC50 [5],pIC50 [6],pIC50 [7],solubility at 16 h [8],Metabolism stability: remaining amount of the compound after the reaction [9],CYP3A4 fluorescent MBI test: difference between IC50 values without and with preincubation [10]
Cc1nc(C)c(-c2csc(NC(=O)[C@@H]3CCC(=O)N3)n2)s1 [Compound I-42],< 4.70,5.52 to 6.00,< 4.70,< 4.70,< 4.70,< 4.70,,,,
Cc1nc(CN(C)C)sc1-c1csc(NC(=O)Cc2c(F)cccc2F)n1 [Compound I-81],,,,,,,5.10 to 6.00,> 50 µM,,
Cc1nc(CO)sc1-c1csc(NC(=O)C2CCC(F)(F)C2)n1 (stereo not drawn) [Compound I-95],< 4.70,,< 4.70,< 4.70,< 4.70,< 4.70,6.00 to 7.00,,99.4%,

# Continued, in another order:
pIC50 [1],pKi [2],pIC50 [3],pIC50 [4],pIC50 [5],pIC50 [6],pIC50 [7],solubility at 16 h [8],Metabolism stability: remaining amount of the compound after the reaction [9],SMILES,CYP3A4 fluorescent MBI test: difference between IC50 values without and with preincubation [10]
< 4.70,,< 4.70,< 4.70,< 4.70,< 4.70,6.00 to 7.00,,,Cc1nc(C(=O)NO)sc1-c1csc(NC(=O)Cc2c(F)cccc2F)n1 [Compound I-107],"(−) (when the difference is 3 μM or less, this was defined as (−))"
< 4.70,,< 4.70,< 4.70,< 4.70,< 4.70,5.10 to 6.00,,,Cc1nc(C)c(-c2csc(NC(=O)Cn3cc(Cl)cn3)n2)s1 [Compound I-116],
,5.52 to 6.00,,,,,,> 50 µM,,Cc1nc(C)c(-c2csc(NS(=O)(=O)Cc3ccccc3)n2)s1 [II-1],
